Activity calls are given as the source filed them.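 Rule for the calls: active = mean IC50 for reducing PEG3 promoter reporter signal at or below a set limit, with IC50 above the limit in both counter screens; inactive = the rest, including counter screen hits.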
How the values were obtained:
PEG-3 [1] = biological target: PEG-3 (UniProt Q6IN02); experiment: inhibition of PEG-3 promoter-driven reporter – cell-based, HeLa, luciferase, CREF/GAPDH counter-screen panel, dose response (AID 624167); conditions: HeLa PEG-Prom luciferase reporter, overnight, CREF/GAPDH counter-screens, mean of runs
PEG-3 [2] = experiment: as above; conditions: HeLa PEG-Prom luciferase reporter, overnight, CREF/GAPDH counter-screens
[3] = run 1, dose range 1, individual replicate IC50 per panel
[4] = run 2, dose range 1, individual replicate IC50 per panel

Sequence of PEG-3 (UniProt Q6IN02) (Q6IN02 whole entry, looked up): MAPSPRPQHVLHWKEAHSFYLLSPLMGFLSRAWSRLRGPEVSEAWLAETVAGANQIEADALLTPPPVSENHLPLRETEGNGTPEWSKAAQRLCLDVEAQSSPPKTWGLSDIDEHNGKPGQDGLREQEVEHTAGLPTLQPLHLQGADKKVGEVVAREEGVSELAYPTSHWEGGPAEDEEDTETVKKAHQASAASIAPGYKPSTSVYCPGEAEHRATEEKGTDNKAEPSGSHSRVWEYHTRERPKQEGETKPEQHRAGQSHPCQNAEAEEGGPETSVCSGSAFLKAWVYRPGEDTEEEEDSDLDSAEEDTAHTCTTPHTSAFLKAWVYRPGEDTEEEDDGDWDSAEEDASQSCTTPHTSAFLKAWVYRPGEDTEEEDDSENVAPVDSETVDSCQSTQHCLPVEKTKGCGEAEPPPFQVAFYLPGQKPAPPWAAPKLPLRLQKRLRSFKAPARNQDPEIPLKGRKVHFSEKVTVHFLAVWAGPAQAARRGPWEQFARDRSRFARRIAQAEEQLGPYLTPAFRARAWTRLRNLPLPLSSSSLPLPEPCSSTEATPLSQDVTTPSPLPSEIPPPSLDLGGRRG

## CC(NC(=O)c1ccc([N+](=O)[O-])o1)C12CC3CC(CC(C3)C1)C2 (configuration not stated)
PEG-3 [1]
  IC50: inactive
PEG-3 [2]; [3]
  IC50: 32.3 µM
PEG-3 [2]; [4]
  IC50: 14.9 µM

## Cc1cccc2c1-c1sc(C(=O)NCCCN3CCCC(C)C3)cc1CO2 (configuration not stated)
PEG-3 [1]
  IC50: 15.6 µM
PEG-3 [2]; [3]
  IC50: 17.5 µM
PEG-3 [2]; [4]
  IC50: 13.7 µM

## COc1ccc(CN(C)C(=O)c2cc(-c3ccc(C)cc3C)nc3ccccc23)c(OC)c1OC
PEG-3 [1]
  IC50: 19.8 µM
PEG-3 [2]; [3]
  IC50: 14.9 µM
PEG-3 [2]; [4]
  IC50: 24.8 µM

## CCOC(=O)c1c(NC(=O)CSc2nnnn2-c2ccccc2OCC)sc2c1CC(C)(C)NC2(C)C
PEG-3 [1]
  IC50: inactive
PEG-3 [2]; [3]
  IC50: 19.6 µM
PEG-3 [2]; [4]
  IC50: 39.9 µM

## O=[N+]([O-])c1cc(F)c(N2CCCCCC2)cc1N1CCNCC1
PEG-3 [1]
  IC50: 15.7 µM
PEG-3 [2]; [3]
  IC50: 18.9 µM
PEG-3 [2]; [4]
  IC50: 12.5 µM

## O=C1c2ccccc2S(=O)(=O)N1Cc1nc2ccccc2s1
PEG-3 [1]
  IC50: 11.3 µM
PEG-3 [2]; [3]
  IC50: 8.32 µM
PEG-3 [2]; [4]
  IC50: 14.3 µM

## COc1cccc(NC(=O)Nc2cccc(C(=O)O)c2)c1
PEG-3 [1]
  IC50: inactive
PEG-3 [2]; [3]
  IC50: 15.1 µM
PEG-3 [2]; [4]
  IC50: 30 µM

## COc1ccc(S(=O)(=O)N2c3ccccc3OCC2c2ccccc2)cc1 (configuration not stated)
PEG-3 [1]
  IC50: > 100 µM (inactive)
PEG-3 [2]; [3]
  IC50: > 100 µM
PEG-3 [2]; [4]
  IC50: > 100 µM

## c1ccc(-c2cc(-c3ccccc3)[n+](-c3ccccc3)c(-c3ccccc3)c2)cc1
PEG-3 [1]
  IC50: 12.3 µM
PEG-3 [2]; [3]
  IC50: 10.7 µM
PEG-3 [2]; [4]
  IC50: 13.9 µM

## CC1(C)CC(NC(=O)c2sc3cc(Cl)ccc3c2Cl)CC(C)(C)N1
PEG-3 [1]
  IC50: 18.1 µM
PEG-3 [2]; [3]
  IC50: 20.7 µM
PEG-3 [2]; [4]
  IC50: 15.6 µM

## CCN1CCN(c2nc(Nc3cc(OC)ccc3OC)nc(Nc3cc(OC)ccc3OC)n2)CC1
PEG-3 [1]
  IC50: 17.5 µM
PEG-3 [2]; [3]
  IC50: 17 µM
PEG-3 [2]; [4]
  IC50: 18.1 µM

## CCCCn1nnnc1C(CCSC)N1CCC(n2c(=O)[nH]c3ccccc32)CC1 (configuration not stated)
PEG-3 [1]
  IC50: inactive
PEG-3 [2]; [3]
  IC50: 34.4 µM
PEG-3 [2]; [4]
  IC50: 70.3 µM

## O=[N+]([O-])c1ccc(-c2nc(Nc3cccc(O)c3)c3ccccc3n2)cc1
PEG-3 [1]
  IC50: 12.9 µM
PEG-3 [2]; [3]
  IC50: 13.4 µM
PEG-3 [2]; [4]
  IC50: 12.5 µM

## Cc1ccc(C2(CCNCc3ccc(N(C)C)cc3)CCOC(C(C)C)C2)cc1 (configuration not stated)
PEG-3 [1]
  IC50: inactive
PEG-3 [2]; [3]
  IC50: 25.9 µM
PEG-3 [2]; [4]
  IC50: 21.3 µM

## Cn1cc(CN2CCCC(C(=O)Nc3ccc(-c4cccc(F)c4)cc3)C2)cn1 (configuration not stated)
PEG-3 [1]
  IC50: inactive
PEG-3 [2]; [3]
  IC50: 19.6 µM
PEG-3 [2]; [4]
  IC50: 29.8 µM

## Cc1ccc(C)c(NP(=O)(Oc2ccccc2)Oc2ccccc2)c1
PEG-3 [1]
  IC50: inactive
PEG-3 [2]; [3]
  IC50: 28.7 µM
PEG-3 [2]; [4]
  IC50: 19.1 µM

## CC[n+]1c(-c2ccccc2)c2cc(N)ccc2c2ccc(N)cc21
PEG-3 [1]
  IC50: 15.7 µM
PEG-3 [2]; [3]
  IC50: 7.7 µM
PEG-3 [2]; [4]
  IC50: 23.6 µM

## Cc1cc(C)cc(NC(=O)Cn2c(=O)oc3cc(S(=O)(=O)N4CCC(C)CC4)ccc32)c1
PEG-3 [1]
  IC50: inactive
PEG-3 [2]; [3]
  IC50: > 100 µM
PEG-3 [2]; [4]
  IC50: 7.9 µM

## CC(=O)OC(C)(C)/C=C/C(=O)C(C)(O)C1[C@H](O)C[C@@]2(C)C3CC=C4C(CC[C@@H](O)C4(C)C)[C@]3(CO)C(=O)C[C@]12C (some centres not stated)
PEG-3 [1]
  IC50: inactive
PEG-3 [2]; [3]
  IC50: 47 µM
PEG-3 [2]; [4]
  IC50: < 0.2 µM

## O=S(=O)(/N=C(/Sc1ccccc1)c1ccccc1)c1ccccc1
PEG-3 [1]
  IC50: inactive
PEG-3 [2]; [3]
  IC50: 28.9 µM
PEG-3 [2]; [4]
  IC50: 19.1 µM

## NCCCNc1nc(N)c([N+](=O)[O-])c(NC2CCCCC2)n1
PEG-3 [1]
  IC50: 12.3 µM
PEG-3 [2]; [3]
  IC50: 10.7 µM
PEG-3 [2]; [4]
  IC50: 13.9 µM

## CC1(C)C(=O)C=CC(=O)C(C)(C)C(=O)C=CC(=O)C(C)(C)C2=CC=C(O2)C(C)(C)C(=O)C=CC1=O
PEG-3 [1]
  IC50: 14.2 µM
PEG-3 [2]; [3]
  IC50: 16.6 µM
PEG-3 [2]; [4]
  IC50: 11.8 µM

## O=S(=O)(Nc1cccc2cccnc12)c1ccccc1
PEG-3 [1]
  IC50: inactive
PEG-3 [2]; [3]
  IC50: > 100 µM
PEG-3 [2]; [4]
  IC50: 7.43 µM

## O=C(Nc1ccc2oc(-c3ccncc3)nc2c1)c1ccc([N+](=O)[O-])o1
PEG-3 [1]
  IC50: 11.2 µM
PEG-3 [2]; [3]
  IC50: 15.9 µM
PEG-3 [2]; [4]
  IC50: 6.56 µM

## CN(C)CC(O)COc1ccc(C(C)(C)c2ccc(OCC(O)CN(C)C)cc2)cc1 (configuration not stated)
PEG-3 [1]
  IC50: inactive
PEG-3 [2]; [3]
  IC50: 26.8 µM
PEG-3 [2]; [4]
  IC50: > 100 µM

## Cc1cc(C)c2ccc(N)nc2c1O
PEG-3 [1]
  IC50: 15.3 µM
PEG-3 [2]; [3]
  IC50: 7.69 µM
PEG-3 [2]; [4]
  IC50: 22.9 µM

## CCN(Cc1ccccc1)S(=O)(=O)c1ccc(C(=O)N(CCCN(C)C)c2nc3cc4c(cc3s2)OCCO4)cc1
PEG-3 [1]
  IC50: inactive
PEG-3 [2]; [3]
  IC50: 33.3 µM
PEG-3 [2]; [4]
  IC50: > 100 µM

## CC1(C)Cc2c(C#N)c(N3CCNCC3)nc(-c3ccco3)c2CS1
PEG-3 [1]
  IC50: 19.9 µM
PEG-3 [2]; [3]
  IC50: 22.7 µM
PEG-3 [2]; [4]
  IC50: 17.2 µM

## COc1cccc(CN(C)C(=O)c2cc(-c3cccs3)nc3ccccc23)c1
PEG-3 [1]
  IC50: inactive
PEG-3 [2]; [3]
  IC50: 24.7 µM
PEG-3 [2]; [4]
  IC50: 30.8 µM

## O=c1[nH]c(=S)[nH]c(O)c1/C=C1\C=Nc2ccccc21
PEG-3 [1]
  IC50: inactive
PEG-3 [2]; [3]
  IC50: > 100 µM
PEG-3 [2]; [4]
  IC50: 17.6 µM

## COc1cc(CNCCN2CCOCC2)ccc1OCc1ccc(Cl)cc1Cl
PEG-3 [1]
  IC50: 19.8 µM
PEG-3 [2]; [3]
  IC50: 20.1 µM
PEG-3 [2]; [4]
  IC50: 19.5 µM

## COc1ccc(-c2nsc3c(N4CCCCC4C)ncnc23)cc1 (configuration not stated)
PEG-3 [1]
  IC50: 15.7 µM
PEG-3 [2]; [3]
  IC50: 17.5 µM
PEG-3 [2]; [4]
  IC50: 14 µM

## COC(=O)C1=C(C)N(Cc2ccccc2)C(=NCc2cccc(Cl)c2)N[C@H]1c1ccccc1
PEG-3 [1]
  IC50: 15.9 µM
PEG-3 [2]; [3]
  IC50: 19.1 µM
PEG-3 [2]; [4]
  IC50: 12.7 µM

## COC(=O)Cc1[nH]n(-c2nc3ccccc3s2)c(=O)c1C(C)=Nc1ccc(Cl)cc1
PEG-3 [1]
  IC50: 12.5 µM
PEG-3 [2]; [3]
  IC50: 24.7 µM
PEG-3 [2]; [4]
  IC50: 0.372 µM

Source: PubChem BioAssay AID624167 (Sanford-Burnham Center for Chemical Genomics, 2012)
